Assay results reported in PubChem BioAssay AID743162 (Broad Institute, 2013).
The source made the active and inactive calls. The rule behind the calls is not given here.

Tested on: Mycobacterium tuberculosis replicating, CFU count, imaging
Experiment: growth inhibition of replicating M. tuberculosis, dose response, CFU by imaging, dry powder, 7108-01 (AID 743162)
Conditions: stronger effect = lower value

SMILES: COC(=O)C(C)Oc1ccc2cc(-c3ccccc3)c(=O)oc2c1 (stereo not drawn)
- CFU count (CFU at 10 uM, at 10 µM): 2.01e+09
- CFU count (at 64 µM): 1e+09 (inactive)

SMILES: Cn1c(NC(=O)c2ccccc2)nc2ccccc21
- CFU count (CFU at 10 uM, at 10 µM): 1.98e+09
- CFU count (at 64 µM): 0

SMILES: CSc1nsc(SCc2ccc(C(=O)Nc3cccc(C)c3)cc2)n1
- CFU count (CFU at 10 uM, at 10 µM): -1.9e+09
- CFU count (at 64 µM): 1.31e+06

SMILES: CCOc1ccc(OC(=O)c2ccc3c(=O)n4c(nc3c2)CCC4)cc1
- CFU count (CFU at 10 uM, at 10 µM): 1.36e+09
- CFU count (at 64 µM): 1e+09 (inactive)

SMILES: c1ccc(-c2n[nH]c(-c3ccccn3)n2)nc1
- CFU count (CFU at 10 uM, at 10 µM): 1.06e+09
- CFU count (at 64 µM): 1.3e+09 (inactive)

SMILES: COc1ccc(CCNc2cc(-c3ccccc3)nc3ncnn23)cc1
- CFU count (CFU at 10 uM, at 10 µM): 1.18e+09
- CFU count (at 64 µM): 4.3e+08 (inactive)

SMILES: CCOC(=O)c1cc(COc2c(Cl)cccc2Cl)on1
- CFU count (CFU at 10 uM, at 10 µM): 1.85e+09
- CFU count (at 64 µM): 1.7e+09 (inactive)

SMILES: COc1ccc(CNC(=O)Nc2ncc([N+](=O)[O-])s2)cc1
- CFU count (CFU at 10 uM, at 10 µM): 1.24e+09
- CFU count (at 64 µM): 220000

SMILES: CCC(C)n1nnc2c(=O)oc3ccccc3c21 (stereo not drawn)
- CFU count (CFU at 10 uM, at 10 µM): 8.38e+08
- CFU count (at 64 µM): 6.7e+08 (inactive)
